According to paper PMC10052609, “Cholinesterase Inhibitors from an Endophytic Fungus Aspergillus niveus Fv-er401: Metabolomics, Isolation and Molecular Docking” (Molecules, 2023):
Where “and” joins values, the source holds several entries; their conditions need not be identical. Identical values can stand only once. Like-named read-outs stand apart in the source and are kept apart here.

What was measured:
[1] = tested on: SF-268; details: SF-268 cell line; read-out: Cytotoxic activity IC50; cited from earlier work
[2] = tested on: MCF-7; details: MCF-7 cell line; read-out: Cytotoxic activity IC50; cited from earlier work
[3] = biological target: AChE (Homo sapiens, UniProt P22303); experiment: Acetylcholinesterase inhibitory activity (Ellman's method); format: biochemical; details: acetylthiocholine substrate, 25 °C, read at 405 nm
Protocol: (§1) In total, 170 μL of Tris–HCl buffer (200 mM, pH 7.5) was added, then 20 μL of the tested compounds at different concentrations ([…]), and finally 20 μL of the enzyme solution (0.1 U mL1). […] In BChE and AChE assays, butyrylthiocholine iodide and acetylthiocholine were used as substrates, and DTNB was used as an indicator. MeOH was used to dissolve the tested samples. […] Blank tests were performed by replacing the enzyme (20 μL) with buffer and recording the absorbances.
(§2) Percentage inhibition was calculated as follows: %Inhibition=Reading B−Reading A/Reading B×100

[4] = tested on: NCI-H460; details: NCI-H460 cell line; read-out: Cytotoxic activity IC50; cited from earlier work
[5] = biological target: BuChE (Homo sapiens, UniProt P06276); experiment: Butyrylcholinesterase inhibitory activity (Ellman's method); format: biochemical; details: butyrylthiocholine iodide substrate, 25 °C, read at 405 nm
Protocol: as §1, §2

[6] = tested on: MIA Pa Ca-2; details: MIA Pa Ca-2 cell line; read-out: Cytotoxic activity IC50; cited from earlier work
[7] = tested on: glutamate-induced excitotoxicity; details: low doses; cited from earlier work

Chain of BuChE (P06276 29-602): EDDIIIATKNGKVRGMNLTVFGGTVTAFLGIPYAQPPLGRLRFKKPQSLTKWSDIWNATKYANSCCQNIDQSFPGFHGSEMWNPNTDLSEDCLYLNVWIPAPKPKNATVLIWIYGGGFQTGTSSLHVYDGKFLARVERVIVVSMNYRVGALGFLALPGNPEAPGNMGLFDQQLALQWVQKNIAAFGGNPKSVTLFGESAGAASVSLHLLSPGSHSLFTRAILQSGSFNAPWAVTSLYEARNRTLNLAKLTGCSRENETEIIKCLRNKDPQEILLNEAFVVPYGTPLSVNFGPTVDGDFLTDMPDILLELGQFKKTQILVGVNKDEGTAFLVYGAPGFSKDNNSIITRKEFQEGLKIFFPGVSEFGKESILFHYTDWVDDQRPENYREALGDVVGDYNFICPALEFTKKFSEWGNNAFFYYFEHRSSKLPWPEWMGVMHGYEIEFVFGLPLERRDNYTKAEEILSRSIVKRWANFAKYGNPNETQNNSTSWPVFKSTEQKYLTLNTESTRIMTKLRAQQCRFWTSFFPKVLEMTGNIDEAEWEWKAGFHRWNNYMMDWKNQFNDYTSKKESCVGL
Chain of AChE (P22303 32-614): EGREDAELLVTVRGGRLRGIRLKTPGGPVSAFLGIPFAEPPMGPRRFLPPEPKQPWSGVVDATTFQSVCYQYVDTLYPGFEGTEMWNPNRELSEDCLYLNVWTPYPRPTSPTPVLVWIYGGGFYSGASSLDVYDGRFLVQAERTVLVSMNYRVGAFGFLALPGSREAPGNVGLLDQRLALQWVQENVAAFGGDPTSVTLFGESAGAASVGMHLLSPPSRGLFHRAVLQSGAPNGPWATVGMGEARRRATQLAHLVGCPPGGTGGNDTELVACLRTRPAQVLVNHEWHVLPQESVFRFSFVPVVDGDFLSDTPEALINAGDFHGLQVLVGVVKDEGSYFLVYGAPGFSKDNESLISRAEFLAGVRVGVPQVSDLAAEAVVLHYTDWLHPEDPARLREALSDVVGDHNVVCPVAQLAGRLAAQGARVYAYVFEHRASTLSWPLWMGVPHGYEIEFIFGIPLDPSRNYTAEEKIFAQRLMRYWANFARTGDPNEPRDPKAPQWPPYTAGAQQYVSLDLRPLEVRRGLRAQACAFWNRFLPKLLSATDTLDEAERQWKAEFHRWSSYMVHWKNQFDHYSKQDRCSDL

In the case of `C=CC(C)(C)c1[nH]c2ccccc2c1C1=C(O)C(=O)C(c2c[nH]c3ccccc23)=C(CC=C(C)C)C1=O` [Terrequinone A], the IC50 [1] is listed as 13.9 µM, the IC50 [2] is listed as 6.8 µM and the IC50 ([3]; Ellman's method, read-out: Acetylcholine Esterase IC50 (converted)) is listed as 22.6 µM. The IC50 [4] was 5.6 µM, the IC50 ([5]; Ellman's method, read-out: Butyryl Choline Esterase IC50 (converted)) was 31.9 µM and the IC50 [6] was 5.4 µM.

For `CC1=C2C(=CO[C@H](C)[C@H]2C)C(O)=C(C(=O)O)C1=O` [Citrinin], the IC50 ([3]; Acetylcholine Esterase IC50, Ellman's method) is listed as 20.2 µM, the “Neuroprotective activity against glutamate-induced excitotoxicity” value [7] is listed as “potential neuroprotective activity” and the IC50 ([5]; Butyryl Choline Esterase IC50, Ellman's method) is listed as 32 µM and 30.1 µM.
